Consider nine compounds from PMC8625693, “Synthesis and Structure-Activity Relationships of New 2-Phenoxybenzamides with Antiplasmodial Activity” (Pharmaceuticals, 2021).

Like-named read-outs stand apart in the source and are kept apart here.

Data set [1] relates to P. falciparum. The settings on record: long-term in vitro, sub-lethal doses, cited from earlier work.
Data set [2] can be described thus: In vitro cytotoxicity with L-6 cells (Alamar Blue). Format: cell-based, rat. The settings on record: rat, Cytotoxicity L-6 Cells IC50. How it is done: (§1) All newly synthesized compounds were tested for their antiplasmodial activity against the chloroquine-sensitive strain Plasmodium falciparum NF54. Cytotoxicity was determined using rat skeletal myofibroblasts (L-6 cells). As standards chloroquine and podophyllotoxin were used.
(§2) In vitro cytotoxicity was determined using a primary cell line of rat skeletal myofibroblasts. The assay was performed in 96-well microtiter plates, each well containing 0.1 mL of RPMI 1640 medium, supplemented with 0.1% L-glutamine (200 mM) and 10% fetal bovine serum, as well as 4000 L-6 cells. Serial drug dilutions of 11 3-fold dilution steps (covering a range from 100–0.002 µg/mL) were prepared. After 70 h of incubation time, the plates were inspected under an inverted microscope to ensure sterile conditions and growth of the controls. […] Podophyllotoxin (Sigma P4405) was used as control.
On the technique in general: The colour change of resazurin is a common sign of viable cells or microbes.

Data set [3] relates to P. falciparum 3D7-A10. The arrangement: method as in PMID 31813848, PMID 32682267. The note with it: erythrocytic cycle of 40 h, different drug concentrations; cited from earlier work.
Data set [4] has as its target T1, CYP3A4 (Homo sapiens, UniProt P08684).
T1 construct: purchased Corning, Glendale, AZ, USA
Kind of data set: Cytochrom P450 3A4 inhibition assay (P450-Glo, luciferin-IPA). The class given is in vitro ADME. The settings on record: recombinant human CYP3A4 Supersomes (+ oxidoreductase + b5), probe luciferin-IPA, stock solutions diluted to 20 µM, pH 7.4, triplicate. How it is done: The CYP3A4 inhibition assay was performed using 96-well White Plates (Greiner Bio-One) at a pH of 7.4. […] Stock solutions were further diluted to a final concentration of 20 µM using water (HPLC grade). The luciferin IPA stock solution (3 mM) was diluted to a final concentration of 0.3 mM using water (HPLC grade). The CYP3A4 reaction mixture was prepared by mixing water (HPLC grade) with potassium phosphate buffer (1 M), luciferin IPA (0.3 mM) and CYP3A4 membrane (1 pmol/µL). The control reaction mixture was prepared using water (HPLC grade), potassium phosphate buffer (1 M), luciferin IPA (0.3 mM) and membrane without CYP activity (1 pmol/µL). Solutions A and B of the NADPH regeneration system were mixed and HPLC grade water was added. The reconstituted luciferin detection reagent was prepared by mixing the reconstituted buffer with esterase with the luciferin detection reagent. Then, solutions of test compounds and standard were added to the wells of the 96-well White Plate, each was tested in triplicate. The CYP3A4 reaction mixture was added to each well and the plate was incubated for 10 min at room temperature. After that, the NADPH regeneration system was added, inducing the reaction followed by an incubation time of 10 min at ambient temperature. By adding the reconstituted luciferin detection reagent, the reaction was terminated, and a luminescent signal was formed. Luminescence was measured by a SpectraMax M3 UV plate reader (Molecular Devices). The relative light units (RLU) were received from a calibration curve with beetle luciferin. […] The CYP3A4 inhibition (%) was calculated from the RLU.

A short description of data set [5]: Parallel artificial membrane permeability assay (PAMPA). The settings on record: pH 7.4. As to the method:
The PAMPA was performed using a Corning Gentest Pre-coated PAMPA Plate System at a pH of 7.4. It consists of 96-well polystyrene plates, whereas the donor-plate (bottom plate) is a conventional 96-well microtiter plate. The base of the acceptor-plate (top plate) consists of a porous membrane. The pores are lined with a lipid-oil-lipid trilayer. Stock solutions (10 mM) of each test compound were prepared in DMSO or MeOH and then further diluted to a final concentration of 200 µM with phosphate-buffered saline (PBS) at a pH of 7.4. Compound solutions were then added to the wells of the donor plate and pure PBS was added to each well of the acceptor plate. Compounds and negative control (pure PBS) were tested in quadruplicates. Donor and acceptor plate were coupled and incubated at ambient temperature for 5 h. After that, the plates were separated and solutions from each well of both plates were transferred onto 96-well UV-Star Microplates (Greiner Bio-One). The UV-absorption was measured at different wavelengths (between 200 and 300 nm) by a SpectraMax M3 UV plate reader (Molecular Devices). The concentrations were received from a calibration curve for each substance. The plates were analyzed at a wavelength were the R^2 value of the calibration curve was higher than 0.99 [48]. […] (2) cequ=cDt* VD+cAt* VA/VD+VA where: • cD(t)—compound concentration in donor well at time t.
Recovery of compounds from donor and acceptor wells (mass retention) was calculated as shown in the equation below. Data were only accepted when recovery exceeded 70%. (3) R=1−cDt∗ VD+cAt∗ VA/c0∗ VD where: • R—mass retention (%); • cA(t)—compound concentration in acceptor well at time t; • cD(t)—compound concentration in donor well at time t; • c0—initial compound concentration in donor well; • VD—donor well volume; • VA—acceptor well volume.

In data set [6] the test system is P. falciparum NF54. Kind of data set: In vitro microplate assay against P. falciparum NF54 (3H-hypoxanthine incorporation, erythrocytic stages). Format: cell-based, Plasmodium falciparum. The note with it: average of four determinations, read-out: P.f. NF54 IC50. How it is done: as §1
In vitro activity against erythrocytic stages of P. falciparum was determined with a ^3H-hypoxanthine incorporation assay, using the chloroquine sensitive NF54 strain [44]. Chloroquine (Sigma C6628) was used as standard. Test compounds were dissolved in DMSO at 10 mg/mL and added to parasite cultures incubated in RPMI 1640 medium without hypoxanthine, supplemented with HEPES (5.94 g/L, NaHCO3 (2.1 g/L), neomycin (100 U/mL), Albumax (5 g/L) and washed human red blood cells A^+ at 2.5% hematocrit (0.3% parasitemia). Serial drug dilutions of 11 3-fold dilution steps (covering a range from 100–0.002 µg/mL) were prepared. The 96-well plates were incubated at a humidified atmosphere at 37 °C; 4% CO2, 3% O2, 93% N2. After 48 h, 0.05 mL of ^3H-hypoxanthine (=0.5 µCi) was added to each well. The plates were incubated for another 24 h under the same conditions. Then, the plates were harvested with a Betaplate cell harvester (Wallac, Zurich, Switzerland). The red blood cells were transferred onto glass fiber filter and washed with distilled water. The dried filters were inserted into a plastic foil with 10 mL of scintillation fluid and counted in a Betaplate liquid scintillation counter. IC50 values were determined from sigmoidal inhibition curves by linear regression using Microsoft Excel. Chloroquine was used as control.

Data set [7] has as its system L-6 cells. Briefly: In vitro cytotoxicity with L-6 cells (Alamar Blue). Format: cell-based, rat. The settings on record: rat, 72 h. How it is done: as §1, §2
[8] abbreviates: Plasmodium falciparum, NF54, chloroquine-sensitive strain NF54, blood stages.
[9] abbreviates: chloroquine-sensitive strain NF54, blood stages.

T1 sequence (P08684 2-503 limits assumed): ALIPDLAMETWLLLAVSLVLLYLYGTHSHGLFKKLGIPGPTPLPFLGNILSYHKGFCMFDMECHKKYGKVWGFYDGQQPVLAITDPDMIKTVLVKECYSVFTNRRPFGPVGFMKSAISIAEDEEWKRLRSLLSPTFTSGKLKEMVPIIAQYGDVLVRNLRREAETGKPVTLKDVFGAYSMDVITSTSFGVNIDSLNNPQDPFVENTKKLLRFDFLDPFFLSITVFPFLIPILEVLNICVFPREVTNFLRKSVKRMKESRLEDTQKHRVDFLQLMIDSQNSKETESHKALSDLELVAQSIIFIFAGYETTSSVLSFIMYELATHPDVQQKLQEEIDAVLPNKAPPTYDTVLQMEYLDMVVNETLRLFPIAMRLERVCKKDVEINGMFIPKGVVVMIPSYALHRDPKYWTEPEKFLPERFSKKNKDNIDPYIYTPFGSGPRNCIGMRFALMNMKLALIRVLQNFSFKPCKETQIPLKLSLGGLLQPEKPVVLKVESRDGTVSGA

As a reminder, the IC50 is the concentration at which inhibition is half-maximal. In general, inhibition refers to the share of the control response that was lost under treatment. A word on the Papp: it is the rate of passage across a membrane or cell layer, normalised by area and donor concentration. A high value points to ready permeation. `CC(C)(C)OC(=O)N1CCN(c2ccccc2NC(=O)c2cccc(C(F)(F)F)c2Oc2ccc(F)cc2)CC1` [Compound 1, tert-Butyl-4-{2-[2-(4-fluorophenoxy)-3-(trifluoromethyl)benzamido]phenyl}piperazine-1-carboxylate]: the resistance development entry in data set [1] was “did neither acquire resistances, nor cross-resistances”; in data set [1] (listed as MMV030666) it was “development of resistant parasites could not be observed”. The compound also came in with an IC50 at 72 h in data set [2] of 131 µM. Further, the stage specific activity result in data set [3] is “peak activity in sub-micromolar concentrations on late stage trophozoites”. In addition, the inhibition at 10 min, 20 µM in data set [4] was 87%. Besides, the Papp at 5 h, 200 µM in data set [5] is 2.37 ×10⁻⁶ cm/s. The IC50 in data set [6] (setting [8]) amounted to 0.413 µM.

As to `O=C(Nc1ccccc1)c1cccc(C(F)(F)F)c1Oc1ccc(F)cc1` [Compound 12, 2-(4-Fluorophenoxy)-N-phenyl-3-(trifluoromethyl)benzamide], the IC50 at 72 h in data set [2] lay within 129 to 202 µM. For the same compound, the IC50 in data set [7] was 202 µM; in data set [6] (setting [8]) it was 9.33 to 21.3 µM; in data set [6] (setting [9]) it was 9.33 µM. Further, in data set [5], the Papp at 5 h, 200 µM came out at 10.1 ×10⁻⁶ cm/s.

`O=CN1CCN(c2ccccc2NC(=O)c2cccc(C(F)(F)F)c2Oc2ccc(F)cc2)CC1` [Compound 18, 2-(4-Fluorophenoxy)-N-[2-(4-formylpiperazin-1-yl)phenyl]-3-(trifluoromethyl)benzamide]: the IC50 at 72 h in data set [2] lay in the range of 31.8 to 35.4 µM. The IC50 is 31.8 µM in data set [7], 6.58 to 15.6 µM in data set [6] (setting [8]) and 6.58 µM in data set [6] (setting [9]). Further, the inhibition at 10 min, 20 µM in data set [4] is 82%. The Papp at 5 h, 200 µM in data set [5] came out at 1.05 ×10⁻⁶ cm/s.

`CC(C)(C)C(=O)N1CCN(c2ccccc2NC(=O)c2cccc(C(F)(F)F)c2Oc2ccc(F)cc2)CC1` [Compound 19, N-{2-[4-(2,2-Dimethylpropanoyl)piperazin-1-yl]phenyl}-2-(4-fluorophenoxy)-3-(trifluoromethyl)benzamide]: the IC50 at 72 h in data set [2] lay within 185 to 190 µM. The IC50 in data set [7] is 185 µM; in data set [6] (setting [8]), 0.617 to 0.659 µM; in data set [6] (setting [9]), 0.617 µM. Besides, the inhibition at 10 min, 20 µM in data set [4] came to 94%. Besides, the Papp at 5 h, 200 µM in data set [5] worked out at 0.23 ×10⁻⁶ cm/s.

By melting point is commonly meant the temperature, or range, at which the solid turns liquid. Take `CC(C)(C)N1CCN(c2ccccc2NC(=O)c2cccc(C(F)(F)F)c2Oc2ccc(F)cc2)CC1` [Compound 20, 2-(4-Fluorophenoxy)-N-[2-(4-tert-butylpiperazin-1-yl)phenyl]-3-(trifluoromethyl)benzamide]: the melting point was in the range of 142 to 145 °C. For the same compound, inhibition in data set [2] was half-maximal at 34.7 µM (IC50 at 72 h). Moreover, the Papp at 5 h, 200 µM in data set [5] is 2.48 ×10⁻⁶ cm/s. Besides, the IC50 in data set [6] (setting [8]) is 2.89 µM.

In data set [2], `CC(C)(C)C(=O)N1CCN(c2cccc(NC(=O)c3cccc(C(F)(F)F)c3Oc3ccc(F)cc3)c2)CC1` [Compound 38, N-{3-[4-(2,2-Dimethylpropanoyl)piperazin-1-yl]phenyl}-2-(4-fluorophenoxy)-3-(trifluoromethyl)benzamide] returned an IC50 at 72 h of 78 to 99.6 µM. Also, the IC50 turned out to be 78 µM in data set [7] and 3.17 µM in data set [6] (setting [8]). Besides, the Papp at 5 h, 200 µM in data set [5] was determined as 1.17 ×10⁻⁶ cm/s.

As for `CC(C)(C)C(=O)N1CCN(c2ccc(NC(=O)c3cccc(C(F)(F)F)c3Oc3ccc(F)cc3)cc2)CC1` [Compound 39, N-{4-[4-(2,2-Dimethylpropanoyl)piperazin-1-yl]phenyl}-2-(4-fluorophenoxy)-3-(trifluoromethyl)benzamide], the IC50 at 72 h in data set [2] was in the range of 78 to 99.6 µM. The IC50 in data set [7] amounted to 99.6 µM; in data set [6] (chloroquine-sensitive strain NF54, blood stages, H, N-pivaloylpiperazinyl) it was 0.269 µM; in data set [6] (setting [9]), 0.58 µM. For the same compound, the inhibition at 10 min, 20 µM in data set [4] was determined as 89%. In addition, the Papp at 5 h, 200 µM in data set [5] turned out to be 0.24 ×10⁻⁶ cm/s.

Take `CC(C)(C)OC(=O)N1CCN(c2ccc(NC(=O)c3cccc(C(F)(F)F)c3Oc3ccccc3)cc2)CC1` [Compound 54, tert-Butyl-4-{4-[2-phenoxy-3-(trifluoromethyl)benzamido]phenyl}piperazine-1-carboxylate]: the midpoint of inhibition in data set [2], the IC50 at 72 h, lay at 124 µM. The IC50 is 185 µM in data set [7] and 1.22 µM in data set [6] (setting [8]). For the same compound, the inhibition at 10 min, 20 µM in data set [4] was determined as 80%. Besides, in data set [5], the Papp at 5 h, 200 µM is 1.22 ×10⁻⁶ cm/s.

In data set [2], `CC(C)(C)C(=O)N1CCN(c2ccccc2NC(=O)c2cccc(C(F)(F)F)c2Oc2ccccc2)CC1` [Compound 56, N-{2-[4-(2,2-Dimethylpropanoyl)piperazin-1-yl]phenyl}-2-phenoxy-3-(trifluoromethyl)benzamide] gave an IC50 at 72 h of 185 to 190 µM. In addition, the IC50 in data set [7] was 190 µM; in data set [6] (setting [8]), 0.617 to 0.659 µM; in data set [6] (setting [9]) it was 0.659 µM. Besides, in data set [5], the Papp at 5 h, 200 µM came to 0.11 ×10⁻⁶ cm/s.
